Assay results reported in patent publication US9301923B2, “Lipids, lipid compositions, and methods of using them” (NOVARTIS AG, priority 2009, dated 2016).
Read-outs that look alike come from different tables or passages of the source.

Columns and labels:
[1] = tested on: PLK-1 mRNA in Hep3B tumors; assay: Hep3B tumor study, PLK-1 mRNA KD in tumor tissue; type: in vivo, human; conditions: Hep3B tumor, mouse, i.v., LNP composition as in the source
From the text: Formulated siRNAs are made up of double stranded siRNA sequences specific to a target mRNA sequence, and are in the form of lipid nucleotid particles (LNPs) containing cationic lipids, stealth lipids and neutral lipids, as provided in the Examples below. The siRNA construct for use in targeting the liver is specific to Factor VII. The siRNA construct for use in targeting tumors is specific to PLK1-424, which is published by Judge et al., See, J Clin Invest. 2009 March; 119(3):661-73; doi: 10.1172/JCI37515). • 1. FVII siRNA duplex sequence
Hep3B tumors are established in female nude mice by sc injection of 7×10^6 cells in 100 ul PBS into the left flank. Mice are randomized into treatment groups 10-14 days after seeding as tumors reached an average size of 100 mm^3. siRNA formulated LNP formulations are administered at various dose levels intravenously via the lateral tail vein calculated on a mg siRNAs/kg basis according to individual animal weights (10 ml/kg injection volume). Mice are euthanized by CO2 inhalation at various time points and the tumors are harvested for mRNA quantitation. Lipids with a wide range of pKa (5.3-6.6) are used in the LNP formulations. Tumors are measured in 2 dimensions (width×length) to assess tumor growth using digital calipers. Tumor volume is calculated using the equation [a×b×b/2], where a equals the largest diameter and b equals the smallest diameter.
About 30-50 mg tumor tissue is homogenized in tissue lysis buffer in a Qiagen homogenizer followed by centrifugation to clarify lysates. Total RNA is isolated using RNeasy isolation kit (catalog number 74106) according to the manufacture's protocol. PLK-1 mRNA is analyzed by quantitative PCR and normalized to human GAPDH. Applied Biosystems human PLK-1 gene expression assay Hs00983229_m1 and human GAPDH endogenous control cat number 4326317E are used for mRNA detection.
The pKa in all tables refers to the pKa of the cationic lipid. Where multiple doses are indicated (e.g., 3×5), the first number indicates the number of doses given and the second number indicates the amount per dose in mg siRNA (biologically active agent) per kg mouse. In general the multiple doses are administered at 24 hour intervals, and tissues for mRNA quantitation are harvested 24 hours after the last dose.

[2] = tested on: Factor VII; assay: Factor VII activity assay, in vivo liver delivery of FVII siRNA LNP; parameters: species or system mouse; conditions: for FVII inhib %: ~48 h; for in vivo Factor VII inhibition: formulation containing the cationic lipid, RNAi construct specific to Factor VII, liver
Summary of the method: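 Female CD-1 mice (~25 g) given a single i.v. tail-vein dose of FVII siRNA in LNPs (cationic, stealth, neutral lipids), dosed as mg siRNA/kg. Plasma collected ~48 h post-injection; FVII activity read against a standard curve from pooled vehicle-control plasma.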

[3] = Particle size and PDI by dynamic light scattering (Malvern Zetasizer); type: physicochemical
Summary of the method: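 Nanoparticles diluted in PBS to a count rate of about 200-400 kcts and measured by dynamic light scattering; size given as intensity-weighted average diameter, with polydispersity index from the same measurement.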

[4] = pKa of the lipid by TNS fluorescence; type: physicochemical
Summary of the method: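 Lipid dissolved in ethanol (2 mM stock) and measured with TNS across eight buffers of differing pH, in water at standard temperature and pressure. Normalized fluorescence intensity plotted against pH and points joined by a smooth line to derive pKa, precise to about 0.2 units.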

[5] = dose 3 mg/kg siRNA i.v., lipid/no neutral lipid/CHOL/AVANTI 880150P 50/0/46/4, N/P 3.43
[6] = LNP formulation with PLK1 siRNA, helper, neutral and stealth lipid, molar ratio and N/P as in the table
[7] = lipid/no neutral lipid/CHOL/AVANTI 880150P 50/0/46/4, N/P 3.43
[8] = dose 1 mg/kg siRNA i.v., lipid/no neutral lipid/CHOL/GM-020 NOF 60/0/36/4, N/P 3
[9] = lipid/no neutral lipid/CHOL/GM-020 NOF 60/0/36/4, N/P 3
[10] = dose 3 mg/kg siRNA i.v., lipid/DSPC/CHOL/AVANTI 880150P 50/28/18/4, N/P 3.43
[11] = lipid/DSPC/CHOL/AVANTI 880150P 50/28/18/4, N/P 3.43

Structure (SMILES)	FVII inhib % [2, 5]	Final size (nm) [3, 6]	Final size (nm) [3, 7]	PDI [3, 7]	pKa ([4]; pKa)	FVII inhib % [2, 8]	Final size (nm) [3, 9]	PDI [3, 9]	PLK1 inhibition % ([1]; 1 × 1 mg siRNA/kg)	also measured
CCCCC/C=C\C/C=C\CCCCCCCCOCC(CN1CCC(C)(C)C1)OCCOCCO[C@H]1CC[C@@]2(C)C(=CC[C@H]3[C@@H]4CC[C@H]([C@H](C)CCCC(C)C)[C@@]4(C)CC[C@@H]32)C1 (stereo partly shown) [E0026]	95.1%	105.8 nm	87 nm	0.23	–	–	–	–	–	PLK1 inhibition % ([1]; 1 × 5 mg siRNA/kg): 75%
CCCCC/C=C\C/C=C\CCCCCCCCOCC(CN1CCCC1C)OCCOCCO[C@H]1CC[C@@]2(C)C(=CC[C@H]3[C@@H]4CC[C@H]([C@H](C)CCCC(C)C)[C@@]4(C)CC[C@@H]32)C1 (stereo partly shown) [E0083]	–	–	–	–	6.79	55.6%	113.4 nm	0.199	–	–
CCCCC/C=C\C/C=C\CCCCCCCCOCC(CN1CCCC1C)OCCOCCOCCOCCO[C@H]1CC[C@@]2(C)C(=CC[C@H]3[C@@H]4CC[C@H]([C@H](C)CCCC(C)C)[C@@]4(C)CC[C@@H]32)C1 (stereo partly shown) [E0084]	–	–	–	–	7.27	60.7%	112.1 nm	0.1	–	–
CCCCC/C=C\C/C=C\CCCCCCCCOCC(CN1CCC(OC)C1)OCCO[C@H]1CC[C@@]2(C)C(=CC[C@H]3[C@@H]4CC[C@H]([C@H](C)CCCC(C)C)[C@@]4(C)CC[C@@H]32)C1 (stereo partly shown) [E0087]	–	–	–	–	6.38	69%	119.2 nm	0.148	–	–
CCCCC/C=C\C/C=C\CCCCCCCCOCC(CN1CCOCC1)OCCCOCCCO[C@H]1CC[C@@]2(C)C(=CC[C@H]3[C@@H]4CC[C@H]([C@H](C)CCCC(C)C)[C@@]4(C)CC[C@@H]32)C1 (stereo partly shown) [E0093]	–	82.42 nm	–	–	4.85	–	–	–	–	PLK1 inhibition % ([1]; 1 × 10 mg siRNA/kg): 2%
CCCCCCCC/C=C\CCCCCCCCOCC(CN1CCCC1C)OCCCOCCCO[C@H]1CC[C@@]2(C)C(=CC[C@H]3[C@@H]4CC[C@H]([C@H](C)CCCC(C)C)[C@@]4(C)CC[C@@H]32)C1 (stereo partly shown) [E0094]	–	–	–	–	5.91	36.3%	115.5 nm	0.076	–	–
CCCCC/C=C\C/C=C\CCCCCCCCOCOCC(CN1CCCCC1)OCCOCCO[C@H]1CC[C@@]2(C)C(=CC[C@H]3[C@@H]4CC[C@H]([C@H](C)CCCC(C)C)[C@@]4(C)CC[C@@H]32)C1 (stereo partly shown) [E0115]	–	–	–	–	6.41	68.8%	162.5 nm	0.098	–	–
CCCCCCCC/C=C\CCCCCCCCOCC(CN1CC[C@@H]2CCCC[C@H]2C1)OCCOCCO[C@H]1CC[C@@]2(C)C(=CC[C@H]3[C@@H]4CC[C@H]([C@H](C)CCCC(C)C)[C@@]4(C)CC[C@@H]32)C1 (stereo partly shown) [E0120]	–	87 nm	–	–	5.48	–	–	–	28%	–
CCCCCCCC/C=C\CCCCCCCCOCC(CN1CCOCC1)OCCOC(=O)CO[C@H]1CC[C@@]2(C)C(=CCC3[C@@H]4CC[C@H]([C@H](C)CCCC(C)C)[C@@]4(C)CC[C@@H]32)C1 (stereo partly shown) [E0128]	–	83.47 nm	–	–	5.01	–	–	–	23%	–
CCCCCCCC/C=C\CCCCCCCCOCC(CN1CCCCC1)OCCOC(=O)CCCC(=O)O[C@H]1CC[C@@]2(C)C(=CC[C@H]3[C@@H]4CC[C@H]([C@H](C)CCCC(C)C)[C@@]4(C)CC[C@@H]32)C1 (stereo partly shown) [E0151]	–	103.8 nm	–	–	6.06	–	–	–	25%	PLK1 inhibition % ([1]; 1 × 0.1 mg siRNA/kg): 7%
CCCCCCCC/C=C\CCCCCCCCOCC(CN1CCOCC1)OCCOCCOC(=O)CCC(=O)O[C@H]1CC[C@@]2(C)C(=CC[C@H]3[C@@H]4CC[C@H]([C@H](C)CCCC(C)C)[C@@]4(C)CC[C@@H]32)C1 (stereo partly shown) [E0152]	–	121.3 nm	–	–	5.38	–	–	–	18%	–
CCCCCCCC/C=C\CCCCCCCCOCOCC(CN1CCCCC1)OCCCOC(=O)CCC(=O)O[C@H]1CC[C@@]2(C)C(=CC[C@H]3[C@@H]4CC[C@H]([C@H](C)CCCC(C)C)[C@@]4(C)CC[C@@H]32)C1 (stereo partly shown) [E0160]	–	100.8 nm	–	–	6.05	–	–	–	38%	–
CCCCC/C=C\C/C=C\CCCCCCCCOCC(CN1CCC(C)(C)CC1)OCCOCCO[C@H]1CC[C@@]2(C)C(=CCC3C2CC[C@@]2(C)C3CC[C@@H]2[C@H](C)CCCC(C)C)C1 (stereo partly shown) [E0171]	54.1%	–	90 nm	0.18	8.5	–	–	–	–	in vivo Factor VII inhibition [2]: 40.8%
CCCCC/C=C\C/C=C\CCCCCCCCOCC(CN(C)C)OCCOCCO[C@H]1CC[C@@]2(C)C(=CC[C@H]3[C@@H]4CC[C@H]([C@H](C)CCCC(C)C)[C@@]4(C)CC[C@@H]32)C1 (stereo partly shown) [E0172, reference compound]	40.8%	–	129 nm	0.184	6.7	–	–	–	–	pKa [4]: 8.5; FVII inhib % [2, 10]: 21%; Final size (nm) [3, 11]: 170 nm; PDI [3, 11]: 0.181
CCCCC/C=C\C/C=C\CCCCCCCCOCC(CN(C)C)OCCCCO[C@H]1CC[C@@]2(C)C(=CCC3C2CC[C@@]2(C)C3CC[C@@H]2[C@H](C)CCCC(C)C)C1 (stereo partly drawn) [E0173, 3-Dimethylamino-2-(Cholest-5-en-3-beta-oxybutan-4-oxy) -1-(cis,cis-9,12-octadecadienoxy)propane, reference compound]	98.5%	–	76 nm	0.16	6.73	–	–	–	–	FVII inhib % ([2]; dose 1 mg/kg siRNA i.v., lipid/no neutral lipid/CHOL/AVANTI 880150P 50/0/46/4, N/P 3.43): 87.4%; FVII inhib % [2, 10]: 90.9%; in vivo Factor VII inhibition [2]: 98.5%; Final size (nm) [3, 11]: 98 nm; PDI [3, 11]: 0.17
CCCCC/C=C\C/C=C\CCCCCCCCCCC(CN(C)C)OC(=O)CCC(=O)O[C@H]1CC[C@@]2(C)C(=CCC3C2CC[C@@]2(C)C3CC[C@@H]2[C@H](C)CCCC(C)C)C1 (stereo partly shown) [E0174, reference compound]	3.5%	–	90 nm	0.21	5.15	–	–	–	–	FVII inhib % [2, 10]: 63.2%; Final size (nm) [3, 11]: 117 nm; PDI [3, 11]: 0.23
